Entries after “also recorded” stand apart in the source; their conditions may differ.
What was measured:
Format in all cases: in vivo
C57BL/6 mice = experiment: Blood biochemical analysis in WT mice fed a high fat diet
Procedure: Female mice deficient for the low density lipoprotein receptor (LDLR^−/−) on a C57BL/6 background with appropriate control mice mice (eight weeks of age) were obtained from Jackson Laboratories (Bar Harbor, Me.). Animals were fed a western style diet formulated to match Paigen's Atherogenic Rodent Diet (42% fat, 0.15% cholesterol, 19.5% casein; Research Diets Inc., New Brunswick, N.J.).
[…], white blood count, hematocrit, hemoglobin, and platelets were analyzed using a HemaTrue™ Hematology Analyzer (Heska AG, Switzerland). Urea nitrogen, glucose, alkaline phosphatase, total protein, alanine transaminase and creatinine were determined using a Spotchem EZ SP-4430 POCT analyzer (Arkray, Inc., Kyoto, Japan). HDL and LDL levels were determined using a fluorescence quantification kit (K613-100, Biovision, Mountain View, Calif.)

[1] = tested on: phosphorylated SMADs 1/5/8; experiment: p-SMAD1/5/8 immunofluorescence in atherosclerotic lesions of LDLR−/− mice
From the text: BMP signaling activity in the nascent lesions of LDLR^−/− mice was characterized. Phosphorylated BMP-responsive SMADs (p-SMAD1/5/8), effectors of the BMP signaling pathway that are retained in the nuclei of activated cells, were detected by immunofluorescence in endothelial cells, macrophages, and the media of atheromatous lesions (FIG. 1b), particularly in the lesser curvature of the aorta, beginning three weeks on HFD. Activation of BMP signaling persisted for at least 20 weeks and was abundant near calcific lesions (FIG. 3). To confirm that the activation of SMAD1/5/8 observed in the vessels of LDLR^−/− mice was attributable to BMP signaling, a BMP type I receptor inhibitor, compound 13, was administered (2.5 mg/kg ip daily for five days) to LDLR^−/− mice that had received HFD for 6 weeks.
For immunofluorescence, frozen sections were post-fixed in cold methanol and incubated with polyclonal antibodies specific for p-SMAD1/5/8 (1:100, Cell Signaling, Danvers, Mass.) or MAC2 (1:100, Cedarlane, Burlington, ON) followed by FITC labeled Goat Anti-Rabbit IgG or Rhodamine Goat Anti-Rat IgG (both Jackson Immuno Research, West Grove, Pa.), respectively.
LDLr−/− mice were started on a hypercholesterolemic diet at 8 weeks, and treated with either vehicle (saline) or a BMP inhibitor positive control compound (compound 13, 2.5 mg/kg/d intraperitoneally) for an additional 8 weeks. Aortae were harvested and fixed, and then stained with antibodies sensitive for the BMP effector molecule, phosphorylated-SMAD1/5/8, and counterstained with DAPI nuclear stain. Within 6-8 weeks of being subjected to a high fat diet, LDR−/− mice developed fatty lesions in the intima of the aortic root, based on traditional histochemical staining techniques (data not shown). […] Thus, the cellular components of lipid rich plaques, predominantly macrophage-derived foam cells, had evidence of intense activation of the BMP signaling pathway. […]

MGP−/− mice [2] = experiment: Aortic calcification in MGP−/− mice (Alizarin red, OsteoSense); details: for aortic tissue calcium (Alizarin red staining): 28 days old
Procedure: (§1) MGP−/− mice were treated with either vehicle or the small molecule BMP type I receptor inhibitor compound 13 (2.5 mg/kg once daily IP) from day 1 to 28. Compound 13 is used as a BMP inhibitor positive control compound in these experiments. Whole aortas were harvested for phospho-Smad 1/5/8 (P-Smad) immunohistochemistry, a marker of BMP signaling, and for Alizarin Red staining of calcium. Osteogenic activity in aortas was visualized ex vivo by the uptake of a fluorescent bisphosphonate imaging probe. MGP−/− mice were also treated with vehicle or compound 13 to ascertain if inhibition of BMP signaling could impact survival, using Kaplan-Meier and Cox regression analysis.
MGP−/− mice were treated with intraperitoneal (IP) injections of either vehicle or compound 13 at 2.5 mg/kg/day from day 1-28. At day 28, aortas were harvested for both histology and RNA isolation. […] To further quantify aortic calcium, a fluorescent bisphosphonate agent that specifically binds to hydroxyapatite (OsteoSense 680 nm, Perkin Elmer) was used. (Aikawa E, et al. Multimodality molecular imaging identifies proteolytic and osteogenic activities in early aortic valve disease. Circulation. 2007; 115(3):377-386 and Zaheer A, et al. In vivo near-infrared fluorescence imaging of osteoblastic activity. Nature biotechnology. 2001; 19(12):1148-1154.) MGP−/− mice at 27 days of age treated with vehicle or compound 13 received OsteoSense via tail vein, and 24 h later, aortas were harvested for imaging. […] The reduction in BMP signaling and aortic calcification observed with compound 13 treatment of MGP−/− mice was associated with a >5-fold reduction in aortic Wnt3a gene expression, implicating the Wnt signaling pathway as an important mediator of BMP-dependent osteogenic differentiation (P<0.01).
MGP−/− mice were treated with vehicle (n=7), compound 13 (2.5 mg/kg/day IP, n=6), or ALK3-Fc (2 mg/kg QOD IP, n=4) beginning on day 1 after birth. At day 27, mice were injected via the tail vein with a fluorescent bisphosphonate probe (Osteosense 680 nm, 2 nmol per mouse) that targets tissue calcification. Twenty-four hours later, aortae were harvested and imaged.

MGP−/− mice [3] = experiment: Survival of MGP−/− mice; details: 2.5 mg/kg/day IP from day 1, n=10 in each group
Procedure: as §1
Twenty MGP−/− mice were treated either with vehicle (n=10) or compound 13 (2.5 mg/kg/day IP, n=10) beginning at day 1 of life and followed for survival.

[4] = female C57BL/6 WT mice, high fat diet 30 weeks, 2.5 mg/kg ip daily, mean ± SEM

c1ccc2c(-c3cnn4cc(-c5ccc(N6CCNCC6)cc5)cnc34)ccnc2c1 [Compound 13, 4-[6-(4-piperazin-1-ylphenyl)pyrazolo[1,5-a]pyrimidin-3-yl]quinoline] gave an Alanine transaminase (C57BL/6 mice; [4]) of 159 ± 19 IU/L, an Alkaline phosphatase (C57BL/6 mice; [4]) of 109 ± 8 IU/L and a Blood urea nitrogen (C57BL/6 mice; [4]) of 25 ± 1 mg/dL. For the same compound, the Cholesterol (C57BL/6 mice; [4]) was 183 ± 6 mg/dL, the Creatinine (C57BL/6 mice; [4]) was 0.5 ± 0.0 mg/dL and the Glucose (C57BL/6 mice; [4]) was 311 ± 12 mg/dL. For the same compound, the Hemoglobin (C57BL/6 mice; [4]) was 13.5 ± 1.0 g/dL, the Total protein (C57BL/6 mice; [4]) was 4.7 ± 0.2 g/dL and the Triglycerides (C57BL/6 mice; [4]) was 82 ± 21 mg/dL. The “total serum cholesterol vs vehicle” value (C57BL/6 mice; wild-type animals on a HFD, in words) was “reduced total serum cholesterol”, the “p-SMAD1/5/8 within atherosclerotic lesions” value ([1]; LDLR−/− mice on high fat diet 6 weeks, treated five days, compound 13 2.5 mg/kg ip daily, ALK3-Fc 2 mg/kg ip every other day) was “suppressed phosphorylation of SMADs 1/5/8; also recorded: markedly diminished the detection of p-SMAD1/5/8” and the “p-SMAD1/5/8 staining in aorta” value ([1]; LDLR−/− mice treated during 6 weeks of high fat diet, compound 13 2.5 mg/kg ip daily, ALK3-Fc every other day, 2.5 mg/kg) was “decreased staining for phosphorylated SMAD1/5/8”. The “phosphorylated-SMAD1/5/8 staining in atheroma” value ([1]; LDLr−/− mice, hypercholesterolemic diet and treatment 8 weeks, 2.5 mg/kg/d ip) was “greatly diminished”, the “aortic tissue calcium (Alizarin red staining)” value (MGP−/− mice [2]; treated from day 1) was “reduction in tissue calcium levels” and the “aortic tissue calcium (Alizarin red staining)” value (MGP−/− mice [2]; treated from day 1, listed as compound 13) was “less calcification; also recorded: reduced vessel calcification”. The “arterial calcification by OsteoSense fluorescence” value (MGP−/− mice [2]; day 1-28, compound 13 2.5 mg/kg/day IP, ALK3-Fc 2 mg/kg QOD IP) was “reduction of arterial calcification; also recorded: marked reduction in arterial calcification; also recorded: reduces vascular calcification”, the “reduction in aortic osteogenic activity compared to vehicle-treated controls” value (MGP−/− mice [2]; fluorescent bisphosphonate probe, n=6 in each group) was 81% and the “aortic osteogenic activity, normalized average intensity ±SEM” value (MGP−/− mice [2]; vehicle 1.0±0.10) was 0.19±0.05. For the same compound, the “Cox hazard ratio (survival)” value (MGP−/− mice [3]) was 0.04 and the “survival compared to vehicle-treated controls” value (MGP−/− mice [3]) was “improved survival”.
